Test results reported in patent US20210030908A1 (priority 2013, published 2021).
Like-named read-outs stand apart in the source and are kept apart here.

Experiments:
anthrax spores = settings: gas or vapor phase application, prior art; cited from earlier work
[1] = system: Bacillus atrophaeus spore strip; format: cell-based; settings: for Sterilization (6-log reduction of Bacillus atrophaeus), Exposure Time 5 Minutes (CT = 250): 3,000 ppmv ClO2 in air, 700 feet/sec, nozzle 2.54 cm from target, CT in ppmv-hrs, per sample replicate
mold spores = settings: time averaged concentration about 500 to 1500 ppmv over a 12 hour period, prior art; cited from earlier work

[O][Cl+][O-] [chlorine dioxide]
CT found effective for sterilizing anthrax spores (anthrax spores): 9000 ppmv-hrs
Sterilization (6-log reduction of Bacillus atrophaeus), Exposure Time 5 Minutes (CT = 250) ([1]; Group 1 spore strips, pre-humidified for one hour at about 75 degrees F.): − (“−” indicates at least a 6-log reduction of Bacillus atrophaeus)
Sterilization (6-log reduction of Bacillus atrophaeus), Exposure Time 5 Minutes (CT = 250) ([1]; Group 2 spore strips, no pre-humidification prior to test): − (“−” indicates at least a 6-log reduction of Bacillus atrophaeus)
Oxidation of the target ([1]; every test (all exposure times, with and without pre-humidification)): every test resulted in oxidation of the target
Sterilization outcome ([1]; no pre-humidification, exposure times of 30 seconds, 1 minute, and 2 minutes, at CT's of 25, 50, and 100): some sterilization
Sterilization outcome ([1]; no pre-humidification, exposure times of at least 5 minutes at a CT of 250): successful sterilization of all targets
Applications resulting in successful sterilization ([1]; pre-humidified application zones, 30 seconds at a CT of 25): 75%
Sterilization outcome ([1]; pre-humidified application zones, exposure times greater than or equal to 1 minute, CT greater than or equal to 50): successful sterilization of the targets for all applications
CT found effective for killing mold spores and eliminating allergenic effects (mold spores): 6000-18000 ppmv-hrs
